Test results reported in PubChem BioAssay (NCI).
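Results reflect a 48-hour exposure of cells in 96-well plates to compound at five concentrations. GI50: concentration for 50% inhibition of growth. TGI denotes the concentration required for complete inhibition of growth.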

Experiments:
Assay in all cases: NCI tumour cell line growth inhibition, 48 h
A549 NSCLC = tested on: A549 NSCLC
IGROV1 ovarian = tested on: IGROV1 ovarian
KM12 colon = tested on: KM12 colon
M14 melanoma = tested on: M14 melanoma
MALME-3M melanoma = tested on: MALME-3M melanoma
MOLT-4 leukemia = tested on: MOLT-4 leukemia
NCI-H460 lung = tested on: NCI-H460 lung
OVCAR-4 ovarian = tested on: OVCAR-4 ovarian
RPMI-8226 leukemia = tested on: RPMI-8226 leukemia
SK-MEL-5 melanoma = tested on: SK-MEL-5 melanoma

Cc1c2ncccc2nc2[nH]c3ccc(OCCN(C)C)cc3c12
GI50 (A549 NSCLC): 1.87 µM
TGI (A549 NSCLC): 10.3 µM
GI50 (IGROV1 ovarian): 2.13 µM
TGI (IGROV1 ovarian): 16.5 µM
GI50 (KM12 colon): 1.93 µM
TGI (KM12 colon): 13.6 µM
GI50 (M14 melanoma): 3.01 µM
TGI (M14 melanoma): 15.6 µM
GI50 (MALME-3M melanoma): 2.42 µM
TGI (MALME-3M melanoma): 13.5 µM
GI50 (MOLT-4 leukemia): 0.6 µM
TGI (MOLT-4 leukemia): 12.5 µM
GI50 (NCI-H460 lung): 1.93 µM
TGI (NCI-H460 lung): 11 µM
GI50 (OVCAR-4 ovarian): 1.84 µM
TGI (OVCAR-4 ovarian): 8.75 µM
GI50 (RPMI-8226 leukemia): 2.13 µM
TGI (RPMI-8226 leukemia): 5.91 µM
GI50 (SK-MEL-5 melanoma): 9.77 µM
TGI (SK-MEL-5 melanoma): 21.9 µM

CCCCCCCCCCCCOC1C(C(COC2OC(C(O)CN3CCCCC3)C3OC(C)(C)OC23)NC(=O)Nc2ccccc2)OC2OC(C)(C)OC21 (stereo not given)
GI50 (A549 NSCLC): 11.4 µM
TGI (A549 NSCLC): 38 µM
GI50 (IGROV1 ovarian): 16.9 µM
TGI (IGROV1 ovarian): 39.5 µM
GI50 (KM12 colon): 7.06 µM
TGI (KM12 colon): 18.7 µM
GI50 (M14 melanoma): 7.75 µM
TGI (M14 melanoma): 19.4 µM
GI50 (MALME-3M melanoma): 10.1 µM
TGI (MALME-3M melanoma): 22.2 µM
GI50 (MOLT-4 leukemia): 1.29 µM
TGI (MOLT-4 leukemia): 5.54 µM
GI50 (NCI-H460 lung): 4.52 µM
TGI (NCI-H460 lung): 16.9 µM
GI50 (OVCAR-4 ovarian): 9.48 µM
TGI (OVCAR-4 ovarian): 27.3 µM
GI50 (RPMI-8226 leukemia): 5.32 µM
TGI (RPMI-8226 leukemia): 15.3 µM
GI50 (SK-MEL-5 melanoma): 8.66 µM
TGI (SK-MEL-5 melanoma): 21.7 µM

CCCCSCc1nc2nc(Cl)c(Cl)nc2[nH]1
TGI (A549 NSCLC): > 100 µM
TGI (IGROV1 ovarian): > 100 µM
TGI (KM12 colon): > 100 µM
TGI (M14 melanoma): 66.6 µM
TGI (MALME-3M melanoma): 53.6 µM
TGI (MOLT-4 leukemia): 45.5 µM
TGI (NCI-H460 lung): 53.8 µM
TGI (OVCAR-4 ovarian): > 100 µM
TGI (RPMI-8226 leukemia): 38.2 µM
TGI (SK-MEL-5 melanoma): 28.8 µM

O=C1/C(=C/c2ccc([N+](=O)[O-])s2)Oc2ccccc21
GI50 (A549 NSCLC): 1.66 µM
TGI (A549 NSCLC): 3.88 µM
GI50 (IGROV1 ovarian): 0.839 µM
TGI (IGROV1 ovarian): 2.45 µM
GI50 (KM12 colon): 0.352 µM
TGI (KM12 colon): 1.28 µM
GI50 (M14 melanoma): 1.17 µM
TGI (M14 melanoma): 3.57 µM
GI50 (MALME-3M melanoma): 1.39 µM
TGI (MALME-3M melanoma): 3.92 µM
GI50 (MOLT-4 leukemia): 0.654 µM
TGI (MOLT-4 leukemia): 3.23 µM
GI50 (NCI-H460 lung): 1.51 µM
TGI (NCI-H460 lung): 3.53 µM
GI50 (OVCAR-4 ovarian): 0.538 µM
TGI (OVCAR-4 ovarian): 2.8 µM
GI50 (RPMI-8226 leukemia): 0.379 µM
TGI (RPMI-8226 leukemia): 3.57 µM
GI50 (SK-MEL-5 melanoma): 1.18 µM
TGI (SK-MEL-5 melanoma): 2.62 µM

CCn1c(-c2nonc2N)nc2c(C#CC(C)(C)O)nc(O[C@@H](CN)c3ccccc3)cc21
GI50 (A549 NSCLC): 0.108 µM
TGI (A549 NSCLC): 3.7 µM
GI50 (IGROV1 ovarian): 0.0163 µM
TGI (IGROV1 ovarian): 2.86 µM
GI50 (KM12 colon): 0.0578 µM
TGI (KM12 colon): 1.51 µM
GI50 (M14 melanoma): 0.407 µM
TGI (M14 melanoma): 1.67 µM
GI50 (MALME-3M melanoma): 0.447 µM
TGI (MALME-3M melanoma): 1.47 µM
GI50 (MOLT-4 leukemia): 0.11 µM
TGI (MOLT-4 leukemia): 1.97 µM
GI50 (NCI-H460 lung): 0.0621 µM
TGI (NCI-H460 lung): 1.06 µM
GI50 (OVCAR-4 ovarian): 0.447 µM
TGI (OVCAR-4 ovarian): 4.63 µM
GI50 (RPMI-8226 leukemia): 0.645 µM
TGI (RPMI-8226 leukemia): 2.7 µM
GI50 (SK-MEL-5 melanoma): 0.413 µM
TGI (SK-MEL-5 melanoma): 0.892 µM
